For 15 compounds, MIC results are on record in ChEMBL document CHEMBL5154842, “Unique Carbazole-Oxadiazole Derivatives as New Potential Antibiotics for Combating Gram-Positive and -Negative Bacteria” (J Med Chem, 2022).

Usually MIC stands for the lowest concentration found to suppress growth.

Molecules are shown by their SMILES. Values after ≈ are worked out from the molar mass of the structure shown.

Common to all, as to assay type: functional
Experiment [1] has as its system Acinetobacter baumannii. As to the kind of experiment: Antibacterial activity against Acinetobacter baumannii assessed as inhibition of bacterial growth incubated for 24 hrs by CLSI protocol based two fold serial dilution method.
For experiment [2], the system named is Enterococcus faecalis. Description: Antibacterial activity against Enterococcus faecalis assessed as inhibition of bacterial growth incubated for 24 hrs by CLSI protocol based two fold serial dilution method.
Experiment [3] concerns Staphylococcus aureus. Description: Antibacterial activity against Staphylococcus aureus 29213 assessed as inhibition of bacterial growth incubated for 24 hrs by CLSI protocol based two fold serial dilution method.
The subject of experiment [4] is Staphylococcus aureus. Description: Antibacterial activity against Staphylococcus aureus 25923 assessed as inhibition of bacterial growth incubated for 24 hrs by CLSI protocol based two fold serial dilution method.
Experiment [5] has as its system Escherichia coli. As to the kind of experiment: Antibacterial activity against Escherichia coli 25922 assessed as inhibition of bacterial growth incubated for 24 hrs by CLSI protocol based two fold serial dilution method.
The subject of experiment [6] is Pseudomonas aeruginosa. Description: Antibacterial activity against Pseudomonas aeruginosa ATCC 27853 assessed as inhibition of bacterial growth incubated for 24 hrs by CLSI protocol based two fold serial dilution method.
Experiment [7] relates to Staphylococcus aureus. As to the kind of experiment: Antibacterial activity against Staphylococcus aureus assessed as inhibition of bacterial growth incubated for 24 hrs by CLSI protocol based two fold serial dilution method.
Experiment [8] deals with Pseudomonas aeruginosa. Description: Antibacterial activity against Pseudomonas aeruginosa assessed as inhibition of bacterial growth incubated for 24 hrs by CLSI protocol based two fold serial dilution method.
In experiment [9] the test system is Staphylococcus aureus. Description: Antibacterial activity against methicillin-resistant Staphylococcus aureus N315 assessed as inhibition of bacterial growth incubated for 24 hrs by CLSI protocol based two fold serial dilution method.
For experiment [10], the system named is Escherichia coli. As to the kind of experiment: Antibacterial activity against Escherichia coli assessed as inhibition of bacterial growth incubated for 24 hrs by CLSI protocol based two fold serial dilution method.
Experiment [11] has as its system Klebsiella pneumoniae. As to the kind of experiment: Antibacterial activity against Klebsiella pneumonia assessed as inhibition of bacterial growth incubated for 24 hrs by CLSI protocol based two fold serial dilution method.

Turning to `CCCCCCCCCCCCOc1cccc2c1c1ccccc1n2Cc1nnc(S)o1`, the MIC in [1] stood at 256 µg/mL (≈ 550 µM); in experiment [2], 256 µg/mL (≈ 550 µM); in [3], 128 µg/mL (≈ 275 µM); in experiment [4] it was 256 µg/mL (≈ 550 µM); in experiment [5], 256 µg/mL (≈ 550 µM); in experiment [6], 256 µg/mL (≈ 550 µM). Besides, the MIC in experiment [7], in experiment [8], in experiment [9], in [10] and in experiment [11] was 256 µg/mL (≈ 550 µM) throughout.

Take `CCCOc1cccc2c1c1ccccc1n2Cc1nnc(S)o1`: the MIC in experiment [1] was found to be 0.25 µg/mL (≈ 0.737 µM); in [2] it was 2 µg/mL (≈ 5.89 µM); in experiment [3], 4 µg/mL (≈ 11.8 µM); in experiment [4], 2 µg/mL (≈ 5.89 µM); in [5], 1 µg/mL (≈ 2.95 µM); in experiment [6], 4 µg/mL (≈ 11.8 µM). In addition, the minimum inhibitory concentration (MIC) in [7] was found to be 128 µg/mL (≈ 377 µM); in [8], 256 µg/mL (≈ 754 µM); in experiment [9], 2 µg/mL (≈ 5.89 µM); in [10] it was 4 µg/mL (≈ 11.8 µM); in experiment [11] it was 4 µg/mL (≈ 11.8 µM).

Turning to `Fc1ccccc1COc1cccc2c1c1ccccc1n2Cc1nnc(S)o1`, the MIC in experiment [1] was 64 µg/mL (≈ 158 µM); in experiment [2], 256 µg/mL (≈ 631 µM); in [3], 64 µg/mL (≈ 158 µM); in experiment [4], 256 µg/mL (≈ 631 µM); in [5], 16 µg/mL (≈ 39.5 µM); in experiment [6] it was 0.25 µg/mL (≈ 0.617 µM). Also, the MIC in experiment [7] was 256 µg/mL (≈ 631 µM); in [8], 256 µg/mL (≈ 631 µM); in experiment [9], 16 µg/mL (≈ 39.5 µM); in experiment [10], 128 µg/mL (≈ 316 µM); in [11], 32 µg/mL (≈ 78.9 µM).

For `CC(C)=CCn1c2ccccc2c2c(OCc3nnn[nH]3)cccc21`, the MIC in [1] came out at 32 µg/mL (≈ 96 µM); in experiment [2] it was 256 µg/mL (≈ 768 µM); in experiment [3] it was 32 µg/mL (≈ 96 µM); in [4] it was 64 µg/mL (≈ 192 µM); in experiment [5] it was 128 µg/mL (≈ 384 µM); in experiment [6], 0.5 µg/mL (≈ 1.5 µM). The MIC in [7] is 256 µg/mL (≈ 768 µM); in [8] it was 256 µg/mL (≈ 768 µM); in experiment [9], 16 µg/mL (≈ 48 µM); in experiment [10], 32 µg/mL (≈ 96 µM); in experiment [11] it was 32 µg/mL (≈ 96 µM).

In the case of `Sc1nnc(Cn2c3ccccc3c3c(OCc4ccc(Cl)cc4)cccc32)o1`, the MIC was 256 µg/mL (≈ 607 µM) in experiment [1]; 256 µg/mL (≈ 607 µM) in experiment [2]; 256 µg/mL (≈ 607 µM) in experiment [3]; 256 µg/mL (≈ 607 µM) in experiment [4]; 4 µg/mL (≈ 9.48 µM) in [5]; 256 µg/mL (≈ 607 µM) in [6]. In addition, the MIC in [7], in experiment [8], in experiment [9], in [10] and in experiment [11] was 256 µg/mL (≈ 607 µM) throughout.

For the compound `Fc1ccc(COc2cccc3c2c2ccccc2n3Cc2nnc(S)o2)cc1`, the MIC in experiment [1] came out at 4 µg/mL (≈ 9.87 µM); in [2] it was 2 µg/mL (≈ 4.93 µM); in [3], 8 µg/mL (≈ 19.7 µM); in experiment [4] it was 2 µg/mL (≈ 4.93 µM); in experiment [5], 2 µg/mL (≈ 4.93 µM); in experiment [6], 8 µg/mL (≈ 19.7 µM). The MIC in experiment [7] came out at 256 µg/mL (≈ 631 µM); in [8] it was 256 µg/mL (≈ 631 µM); in experiment [9], 1 µg/mL (≈ 2.47 µM); in experiment [10] it was 0.25 µg/mL (≈ 0.617 µM); in experiment [11] it was 4 µg/mL (≈ 9.87 µM).

As to `CCN(CC)CCOc1cccc2c1c1ccccc1n2Cc1nnc(S)o1`, the MIC in experiment [1] stood at 256 µg/mL (≈ 646 µM); in experiment [2], 4 µg/mL (≈ 10.1 µM); in experiment [3], 256 µg/mL (≈ 646 µM); in experiment [4] it was 256 µg/mL (≈ 646 µM); in [5], 256 µg/mL (≈ 646 µM); in experiment [6] it was 2 µg/mL (≈ 5.04 µM). Moreover, the MIC turned out to be 256 µg/mL (≈ 646 µM) in experiment [7]; 256 µg/mL (≈ 646 µM) in [8]; 128 µg/mL (≈ 323 µM) in [9]; 256 µg/mL (≈ 646 µM) in experiment [10]; 256 µg/mL (≈ 646 µM) in [11].

Take `CC(C)=CCOc1cccc2c1c1ccccc1n2Cc1nnc(S)o1`: the MIC in experiment [1] amounted to 8 µg/mL (≈ 21.9 µM); in experiment [2] it was 4 µg/mL (≈ 10.9 µM); in [3] it was 4 µg/mL (≈ 10.9 µM); in [4] it was 4 µg/mL (≈ 10.9 µM); in [5], 4 µg/mL (≈ 10.9 µM); in experiment [6], 2 µg/mL (≈ 5.47 µM). For the same compound, the MIC in experiment [7] stood at 256 µg/mL (≈ 700 µM); in [8], 256 µg/mL (≈ 700 µM); in experiment [9] it was 1 µg/mL (≈ 2.74 µM); in [10], 8 µg/mL (≈ 21.9 µM); in experiment [11], 4 µg/mL (≈ 10.9 µM).

With `CCn1cc(C(=O)O)c(=O)c2cc(F)c(N3CCNCC3)cc21` [NORFLOXACIN], the minimum inhibitory concentration (MIC) was determined as 128 µg/mL (≈ 401 µM) in experiment [1]; 2 µg/mL (≈ 6.26 µM) in experiment [2]; 4 µg/mL (≈ 12.5 µM) in experiment [3]; 1 µg/mL (≈ 3.13 µM) in experiment [4]; 2 µg/mL (≈ 6.26 µM) in experiment [5]; 128 µg/mL (≈ 401 µM) in experiment [6]. In addition, the MIC in experiment [7] worked out at 2 µg/mL (≈ 6.26 µM); in experiment [8], 8 µg/mL (≈ 25.1 µM); in experiment [9], 0.5 µg/mL (≈ 1.57 µM); in [10], 0.25 µg/mL (≈ 0.783 µM); in experiment [11], 4 µg/mL (≈ 12.5 µM).

For `Fc1ccc(COc2cccc3c2c2ccccc2n3Cc2nnc(S)o2)c(F)c1`, the MIC was 64 µg/mL (≈ 151 µM) in experiment [1]; 64 µg/mL (≈ 151 µM) in [2]; 64 µg/mL (≈ 151 µM) in experiment [3]; 64 µg/mL (≈ 151 µM) in experiment [4]; 16 µg/mL (≈ 37.8 µM) in [5]; 0.25 µg/mL (≈ 0.59 µM) in experiment [6]. The MIC in [7] turned out to be 128 µg/mL (≈ 302 µM); in experiment [8], 256 µg/mL (≈ 605 µM); in experiment [9] it was 32 µg/mL (≈ 75.6 µM); in experiment [10], 128 µg/mL (≈ 302 µM); in experiment [11], 32 µg/mL (≈ 75.6 µM).

For the compound `C=CCSc1nnc2c3ccccc3n(Cc3nnc(S)o3)c2n1`, the MIC in experiment [1], in experiment [2], in [3], in experiment [4], in [5] and in experiment [6] was 256 µg/mL (≈ 718 µM) throughout. Moreover, the MIC in [7], in experiment [8], in [9], in [10] and in experiment [11] was 256 µg/mL (≈ 718 µM) each time.

With `Clc1cnc(COc2cccc3[nH]c4ccccc4c23)s1`, the MIC in experiment [1], in experiment [2], in [3], in experiment [4], in experiment [5] and in experiment [6] was 256 µg/mL (≈ 813 µM) each time. Besides, the MIC in experiment [7], in [8], in experiment [9], in [10] and in experiment [11] was 256 µg/mL (≈ 813 µM) each time.

For the compound `c1ccc2c(c1)[nH]c1cccc(OCc3nnn[nH]3)c12`, the MIC in [1] was determined as 128 µg/mL (≈ 483 µM); in experiment [2], 64 µg/mL (≈ 241 µM); in experiment [3] it was 128 µg/mL (≈ 483 µM); in experiment [4] it was 128 µg/mL (≈ 483 µM); in experiment [5], 128 µg/mL (≈ 483 µM); in experiment [6], 0.5 µg/mL (≈ 1.88 µM). The MIC worked out at 128 µg/mL (≈ 483 µM) in experiment [7]; 128 µg/mL (≈ 483 µM) in experiment [8]; 0.5 µg/mL (≈ 1.88 µM) in experiment [9]; 128 µg/mL (≈ 483 µM) in experiment [10]; 64 µg/mL (≈ 241 µM) in [11].

For `CCSc1nnc2c3ccccc3n(Cc3nnc(S)o3)c2n1`, the MIC in experiment [1], in experiment [2], in experiment [3], in experiment [4], in experiment [5] and in experiment [6] was 256 µg/mL (≈ 743 µM) throughout. Also, the MIC in experiment [7], in experiment [8], in [9], in [10] and in experiment [11] was 256 µg/mL (≈ 743 µM) each time.

Consider `CN[C@H](CC(C)C)C(=O)N[C@H]1C(=O)N[C@@H](CC(N)=O)C(=O)N[C@H]2C(=O)N[C@H]3C(=O)N[C@H](C(=O)N[C@H](C(=O)O)c4cc(O)cc(O)c4-c4cc3ccc4O)[C@H](O)c3ccc(c(Cl)c3)Oc3cc2cc(c3O[C@@H]2O[C@H](CO)[C@@H](O)[C@H](O)[C@H]2O[C@H]2C[C@](C)(N)[C@H](O)[C@H](C)O2)Oc2ccc(cc2Cl)[C@H]1O` [VANCOMYCIN], for which the MIC in experiment [2] was determined as 2 µg/mL (≈ 1.38 µM).
